Results: PMC9019100, “Development of NanoLuc-targeting protein degraders and a universal reporter system to benchmark tag-targeted degradation platforms” (Nature Communications, 2022)
Values joined by “and” are separate entries in the source; they are usually repeats but may differ in a detail not shown here. Equal entries are not always repeated. Where two headings read alike, the source gives them in different places.

Legend:
[1] = target: T1, Halo-EGFP-NanoLuc-FKBP^F36V (H-E-N-F) fusion protein (UniProt P0A3G2+P62942+Q9GV45, A155T/A167V/A172T/A224E/A31E/A60N/A81I/C128F/C176G/D78G/E160K/E257K/F37V/F95D/H272N/I117V/K175M/K195N/K70R/L47V/L54V/L88M/L99Q/M102K/N193R/N227D/P142E/P291S/Q151K/Q38R/Q45L/S2A/S58T/T264A/V71I/Y165I/Y273L/Y87F); assay type: cell-based; settings: replicate wells; for Blank corrected Raw Data (470-80): +dox, PROTAC 500nM
Target sequence in this assay (Q9GV45 other isoform, or with tags, fused parts or gaps with the stated changes): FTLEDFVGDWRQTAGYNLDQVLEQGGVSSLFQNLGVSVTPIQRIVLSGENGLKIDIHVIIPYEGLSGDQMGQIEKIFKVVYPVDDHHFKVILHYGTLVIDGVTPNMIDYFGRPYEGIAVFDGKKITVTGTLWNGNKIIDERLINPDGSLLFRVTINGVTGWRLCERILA
Target sequence in this assay (P0A3G2 other isoform, or with tags, fused parts or gaps with the stated changes): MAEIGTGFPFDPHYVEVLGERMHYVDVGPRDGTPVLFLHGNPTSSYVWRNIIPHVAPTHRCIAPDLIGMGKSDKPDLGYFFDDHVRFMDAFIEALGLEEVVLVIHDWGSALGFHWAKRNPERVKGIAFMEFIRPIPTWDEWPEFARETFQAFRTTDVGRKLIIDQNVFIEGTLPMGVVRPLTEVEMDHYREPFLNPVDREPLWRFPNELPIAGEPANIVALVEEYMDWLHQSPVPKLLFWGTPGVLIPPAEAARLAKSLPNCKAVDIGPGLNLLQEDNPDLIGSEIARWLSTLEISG
Target sequence in this assay (P62942 whole entry F37V, the tested form may be a part): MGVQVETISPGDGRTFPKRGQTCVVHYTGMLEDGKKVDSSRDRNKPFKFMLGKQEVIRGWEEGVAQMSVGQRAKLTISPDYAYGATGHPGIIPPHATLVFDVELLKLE

[2] = system: MLKL^−/− HT29 cells expressing MLKL-NanoLuc; assay type: cell-based; settings: for Live cells (%PI negative) after TNF+911+zVAD: MLKL-/- + MLKL NanoLuc, independent experiments
Method: (§1) Cell death was assessed by flow cytometric analysis of PI exclusion. […] Cell death was assessed by flow cytometric analysis of PI exclusion. […] Cell death was assessed by flow cytometric analysis of PI exclusion. e N = 4, f N = 3 independent experiments (symbols), EB represent mean ± SD. g Western from MLKL^−/−CASP8^−/− HT29 cells stably expressing the doxycycline-inducible C-terminal fusion protein, MLKL-NanoLuc (MLKL-NLuc) and constitutively expressing the C-terminal fusion protein caspase-8-FKBP^F36V. […] Cell death was assessed using an IncuCyte and Cytotox-Red uptake. N = 3 independent experiments, one representative experiment shown, EB represent mean ± SD.
(§2) Degrader compounds or a DMSO vehicle control were added for 5 h, as stated in the Fig. legends. Cells were detached using Trypsin-EDTA (Merck) and resuspended in cell supernatants containing 10 μg/mL propidium iodide (PI). PI exclusion analysis was performed using an LSR II flow cytometer (Becton Dickinson, NJ) with 10,000 single-cell events per sample. Flow cytometry data were analysed using WEASEL version 2.7 software (Frank Battye).

[3] = system: MLKL^−/− HT29 cells expressing untagged MLKL; assay type: cell-based; settings: MLKL-/- + MLKL, independent experiments
Method: as §1, §2

[4] = system: wild-type HT29 cells; assay: Necroptosis assay (PI exclusion, flow cytometry), wild-type HT29 cells, TNF+SM+IDN; assay type: cell-based, human; settings: Unt (no death stimulus); sheet S5F
Summary of the method: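 HT29 cells were pretreated 5 h with 500 nM degrader or DMSO, then stimulated 24 h with TNF (100 ng/mL), Smac mimetic compound A (500 nM–1 µM) and emricasan (IDN, 5 µM). Cell death was scored by flow cytometry as PI uptake (10 μg/mL PI, 10,000 events/sample), N = 3 replicates.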

[5] = target: T2, MLKL-NLuc (Oplophorus gracilirostris, UniProt Q9GV45, A31E/A60N/A81I/F95D/I117V/K70R/L54V/L99Q/M102K/N193R/P142E/Q151K/Q38R/Q45L/V71I/Y165I); assay type: cell-based; settings: 5 h
T2 construct: expressed in transfected cells; host or cells: MLKL-/- HT29 (A12); MLKL-/-CASP8-/- HT29 (A24); doxycycline-inducible

[6] = system: MLKL^−/−CASP8^−/− HT29 cells expressing MLKL-NLuc and caspase-8-FKBP^F36V; settings: TNF+SM
[7] = target: T1, Halo-EGFP-NanoLuc-FKBP^F36V (H-E-N-F) fusion protein; assay type: cell-based; parameters: expressed in transfected cells; host or cells: immortalized mouse dermal fibroblasts (iMDFs), ubiquitin promoter, constitutive; settings: 500 nM
Target sequence in this assay (P0A3G2 other isoform, or with tags, fused parts or gaps with the stated changes): as the sequence (P0A3G2 other isoform, or with tags, fused parts or gaps with the stated changes) above
Target sequence in this assay (Q9GV45 other isoform, or with tags, fused parts or gaps with the stated changes): as the sequence (Q9GV45 other isoform, or with tags, fused parts or gaps with the stated changes) above
Target sequence in this assay (P62942 whole entry F37V, the tested form may be a part): as the sequence (P62942 whole entry F37V, the tested form may be a part) above

T2 sequence (Q9GV45 other isoform, or with tags, fused parts or gaps with the stated changes): as the sequence (Q9GV45 other isoform, or with tags, fused parts or gaps with the stated changes) above

Structure (SMILES): CCc1cccc(N(CC)C(=O)Cn2c(C(=O)NC3CCC(C(=O)NCCCCCCCC(=O)NCCCCNc4cccc5c4C(=O)N(C4CCC(=O)NC4=O)C5=O)CC3)cc3ccccc32)c1 (centres unmarked) [NC4]
- NanoLuc luminescence, Blank corrected (470-80) ([1]; 62.5nM, 2h): 4980 and 5006 and 4972
- NanoLuc luminescence, Blank corrected (470-80) ([1]; 62.5nM, 4h): 5208 and 3005 and 4773 and 4875
- NanoLuc luminescence, Blank corrected (470-80) ([1]; 62.5nM, 6h): 2838 and 2892 and 3957
- NanoLuc luminescence, Blank corrected (470-80) ([1]; 62.5nM, 8h): 2020 and 2221 and 2420
- NanoLuc luminescence, Blank corrected (470-80) ([1]; 62.5nM, 10h): 1449 and 1207 and 1837
- NanoLuc luminescence, Blank corrected (470-80) ([1]; 250nM, 2h): 1535 and 1072 and 1399
- NanoLuc luminescence, Blank corrected (470-80) ([1]; 250nM, 4h): 1441 and 855 and 1118
- NanoLuc luminescence, Blank corrected (470-80) ([1]; 250nM, 6h): 752 and 593 and 657 and 1043
- NanoLuc luminescence, Blank corrected (470-80) ([1]; 250nM, 8h): 745 and 600 and 575
- NanoLuc luminescence, Blank corrected (470-80) ([1]; 250nM, 10h): 292 and 341 and 527
- NanoLuc luminescence, Blank corrected (470-80) ([1]; 500nM, 2h): 894 and 649 and 1055 and 784
- NanoLuc luminescence, Blank corrected (470-80) ([1]; 500nM, 4h): 690 and 518 and 723
- NanoLuc luminescence, Blank corrected (470-80) ([1]; 500nM, 6h): 437 and 546 and 398 and 460
- NanoLuc luminescence, Blank corrected (470-80) ([1]; 500nM, 8h): 261 and 295 and 351
- NanoLuc luminescence, Blank corrected (470-80) ([1]; 500nM, 10h): 255 and 239 and 173
- Blank corrected Raw Data (470-80) ([1]; DMSO (control) co-treatment): 1248 and 1289 and 1195 and 929
- Blank corrected Raw Data (470-80) ([1]; co-treatment with MG132 (10uM)): 3006 and 3126 and 2730 and 2907
- effect on MLKL-NanoLuc-driven necroptosis ([2]; 5 h pre-treatment, then TSZ 24 h): sufficient to reduce MLKL-NanoLuc-driven necroptosis
- Live cells (%PI negative) after TNF+911+zVAD ([2]; 31.25nM): 46.4 and 73.2 and 58.1
- Live cells (%PI negative) after TNF+911+zVAD ([2]; 62.5nM): 53.4 and 72.4 and 68.5
- Live cells (%PI negative) after TNF+911+zVAD ([2]; 250nM): 58.1 and 71.5 and 68.6
- Live cells (%PI negative) after TNF+911+zVAD ([2]; 500nM): 54.7 and 68.7 and 64.4
- Live cells (%PI negative) after TNF+911+zVAD ([2]; 1000nM): 53.1 and 66.7 and 61.4
- Live cells (%PI negative) after TNF+911+zVAD ([3]; 3.9nM): 6.4 and 6.9 and 5.3
- Live cells (%PI negative) after TNF+911+zVAD ([3]; 7.8nM): 6.6 and 6 and 6.3
- Live cells (%PI negative) after TNF+911+zVAD ([3]; 31.25nM): 6.5 and 6 and 7.1
- Live cells (%PI negative) after TNF+911+zVAD ([3]; 62.5nM): 6 and 5.5 and 7.5
- Live cells (%PI negative) after TNF+911+zVAD ([3]; 250nM): 4.9 and 6.4 and 6.1
- Live cells (%PI negative) after TNF+911+zVAD ([3]; 500nM): 4 and 4.7 and 6.1
- Live cells (%PI negative) after TNF+911+zVAD ([3]; 1000nM): 5.9 and 5.2 and 6.1
- viable cells (PI exclusion) [4]: 70.2 and 66.8 and 70.5
- depletion of MLKL-NLuc [5]: could be depleted
- Cytotox-Red uptake (cell death), IncuCyte ([6]; elapsed 0 h): 176
- Cytotox-Red uptake (cell death), IncuCyte ([6]; elapsed 0.5 h): 196.812
- Cytotox-Red uptake (cell death), IncuCyte ([6]; elapsed 1 h): 269.75
- Cytotox-Red uptake (cell death), IncuCyte ([6]; elapsed 2 h): 726.062
- Cytotox-Red uptake (cell death), IncuCyte ([6]; elapsed 3 h): 1441.19
- Cytotox-Red uptake (cell death), IncuCyte ([6]; elapsed 4 h): 2153.69
- Cytotox-Red uptake (cell death), IncuCyte ([6]; elapsed 5 h): 2734
- Cytotox-Red uptake (cell death), IncuCyte ([6]; elapsed 6 h): 3193.62
- Cytotox-Red uptake (cell death), IncuCyte ([6]; elapsed 6.5 h): 3375.81
- Cytotox-Red uptake (cell death), IncuCyte ([6]; elapsed 7 h): 3569.31
- Cytotox-Red uptake (cell death), IncuCyte ([6]; elapsed 7.5 h): 3696.25
- Cytotox-Red uptake (cell death), IncuCyte ([6]; elapsed 8 h): 3846.56
- Cytotox-Red uptake (cell death), IncuCyte ([6]; elapsed 9 h): 4053
- Cytotox-Red uptake (cell death), IncuCyte ([6]; elapsed 9.5 h): 4125.31
- Cytotox-Red uptake (cell death), IncuCyte ([6]; elapsed 10 h): 4221.25
- Cytotox-Red uptake (cell death), IncuCyte ([6]; elapsed 10.5 h): 4287.44
- Cytotox-Red uptake (cell death), IncuCyte ([6]; elapsed 11 h): 4360
- Cytotox-Red uptake (cell death), IncuCyte ([6]; elapsed 12 h): 4474.25
- Cytotox-Red uptake (cell death), IncuCyte ([6]; elapsed 13 h): 4557.19
- Cytotox-Red uptake (cell death), IncuCyte ([6]; elapsed 13.5 h): 4775.06
- Cytotox-Red uptake (cell death), IncuCyte ([6]; elapsed 14 h): 4760.06
- Cytotox-Red uptake (cell death), IncuCyte ([6]; elapsed 14.5 h): 4770
- Cytotox-Red uptake (cell death), IncuCyte ([6]; elapsed 15 h): 4767.69
- Cytotox-Red uptake (cell death), IncuCyte ([6]; elapsed 16 h): 4884.75
- Cytotox-Red uptake (cell death), IncuCyte ([6]; elapsed 17 h): 4901.56
- Cytotox-Red uptake (cell death), IncuCyte ([6]; elapsed 18 h): 4950.62
- Cytotox-Red uptake (cell death), IncuCyte ([6]; elapsed 19 h): 4959.75
- Cytotox-Red uptake (cell death), IncuCyte ([6]; elapsed 19.5 h): 4920.31
- time up to which degradation was seen, degrader left in the medium ([7]; 5, 24 or 48 h): up to 24 h
- time up to which degradation was maintained, degrader removed at 5 h ([7]; 24 or 48 h after removal): not maintained
